Reference: patent US6358883B1, “Pesticidal and parasiticidal use of 1-aryl-1-(substituted thio, sulfinyl and sulfonyl)-2-nitroethane compounds” (American Cyanamid Company, priority 1998, dated 2002)

Tests used:
Format in all cases: in vivo
[1] = tested on: Diabrotica virgifera virgifera Leconte, 2nd instar western corn rootworm (WCR); assay: Western corn rootworm (WCR) soil test; parameters: key: 0 = no effect; 1 = 10-25% kill; 2 = 26-35% kill; 3 = 36-45% kill; 4 = 46-55% kill; 5 = 56-65% kill; 6 = 66-75% kill; 7 = 76-85% kill; 8 = 86-99% kill; 9 = 100% kill
Summary of the method: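 Compound in 35% acetone/water applied to talc at 1.25 mg active ingredient per jar (about 50 kg/ha), solvent evaporated, then mixed with millet seed and moist soil. Ten 2nd-instar larvae per jar; mortality counted after 5 days, missing larvae scored dead.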

[2] = tested on: Diabrotica undecimpunctata howardi, eggs-southern corn rootworm (SCR-Eggs); assay: Southern corn rootworm eggs (SCR-Eggs) treated diet test; parameters: key: 0 = no effect; 1 = 10-25% kill; 2 = 26-35% kill; 3 = 36-45% kill; 4 = 46-55% kill; 5 = 56-65% kill; 6 = 66-75% kill; 7 = 76-85% kill; 8 = 86-99% kill; 9 = 100% kill; details: mortality after 7 days
Summary of the method: (§1)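 Compounds dissolved at 10,000 ppm in 35% acetone/water, diluted with water, applied to artificial diet in wells and dried. Southern corn rootworm or southern armyworm eggs placed on treated diet under vented covers; mortality counted after 7 days.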

[3] = tested on: Tetranychus urticae (OP-resistant strain), 2-spotted spider mite (TSM); assay: 2-spotted spider mite (TSM) plant dip test; parameters: key: 0 = no effect; 1 = 10-25% kill; 2 = 26-35% kill; 3 = 36-45% kill; 4 = 46-55% kill; 5 = 56-65% kill; 6 = 66-75% kill; 7 = 76-85% kill; 8 = 86-99% kill; 9 = 100% kill; details: mortality after 2 days
Summary of the method: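 OP-resistant mites (~100 per leaf) were transferred onto Sieva lima bean primary leaves about 2 h before treatment. Infested plants were dipped for 3 s in compound from a 10,000 ppm stock in 35% acetone/water, diluted with water. Mortality was counted after 2 days.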

[4] = tested on: Aphis gossypii, cotton aphid (CA); assay: Cotton aphid (CA) cotyledon dip test; parameters: key: 0 = no effect; 1 = 10-25% kill; 2 = 26-35% kill; 3 = 36-45% kill; 4 = 46-55% kill; 5 = 56-65% kill; 6 = 66-75% kill; 7 = 76-85% kill; 8 = 86-99% kill; 9 = 100% kill; details: mortality after 5 days
Summary of the method: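 Cotyledon-stage cotton plants infested overnight via a heavily infested leaf, then dipped in test solution (compound in 35% acetone/water, diluted with water) and dried. Mortality counted after 5 days.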

[5] = tested on: M. incognita (Root Knot Nematode) larvae; assay: Evaluation of test compounds against M. incognita larvae in microtiter plate wells (movement score); details: larvae scored for movement after 20-24 hours; note: key: A score of '9' indicates inactive worms with a straight, sticklike morphology; A score of '8' indicates inactive worms with a limp, curled or curved morphology; A score of '7' indicates dead/paralyzed worms after 72 hours
Summary of the method: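 Newly emerged M. incognita larvae in S Medium (buffered salt solution), 50-65 worms per well, exposed to test compounds in sealed microtiter wells. Movement scored after 20-24 h incubation; wells with obviously dead/paralyzed larvae scored positive. A score of "7" denotes dead/paralyzed worms after […].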

[6] = tested on: Spodoptera eridania, 2nd instar larvae, southern armyworm (SAW); assay: Southern armyworm (SAW) leaf dip test; parameters: key: 0 = no effect; 1 = 10-25% kill; 2 = 26-35% kill; 3 = 36-45% kill; 4 = 46-55% kill; 5 = 56-65% kill; 6 = 66-75% kill; 7 = 76-85% kill; 8 = 86-99% kill; 9 = 100% kill
Summary of the method: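 Compound is dissolved at 10,000 ppm in 35% acetone/water, then diluted with water. Lima bean leaves are dipped for 3 seconds, dried and placed with ten 2nd instar larvae on damp filter paper. Mortality, reduced feeding and molting interference are scored at 5 days.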

[7] = tested on: Spodoptera eridania, eggs-southern armyworm (SAW-Eggs); assay: Southern armyworm eggs (SAW-Eggs) treated diet test; parameters: key: 0 = no effect; 1 = 10-25% kill; 2 = 26-35% kill; 3 = 36-45% kill; 4 = 46-55% kill; 5 = 56-65% kill; 6 = 66-75% kill; 7 = 76-85% kill; 8 = 86-99% kill; 9 = 100% kill; details: mortality after 7 days
Summary of the method: as §1

[8] = tested on: C. elegans (Bristol strain); assay: Evaluation of test compounds against C. elegans (motility, 96-well plate); parameters: key: 9=complete kill in 4 hours; 8=complete kill in 24 hours; 7=markedly reduced motility in approximately 95% of worms in 24 hours; 0=normal motility, same as controls; details: motility at 4 and 24 hours
Summary of the method: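 Bristol-strain C. elegans in Na buffer added to wells containing dried compound (applied in 80% acetone) and incubated at 20 °C. Motility of adults and larvae scored subjectively but semi-quantitatively under a dissecting microscope at 4 and 24 h after immersion, plates tapped before reading.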

CCOC(=O)CSC(C[N+](=O)[O-])c1ccc2c(c1)OCO2 (stereo not drawn) [Example 19]
WCR (50 ppm) rating [1]: 3 (3 = 36-45% kill)
SCR Eggs (1000 ppm) rating [2]: 0
TSM (300 ppm) rating [3]: 0
CA (300 ppm) rating [4]: 0
M. incognita (150 ppm) score [5]: 9
SAW (300 ppm) rating [6]: 0
SAW Eggs (300 ppm) rating [7]: 0
Rating Against C. elegans (150 ppm) [8]: 9

CCCCOC(=O)CSC(C[N+](=O)[O-])c1ccc2c(c1)OCO2 (stereo not drawn) [Example 20]
WCR (50 ppm) rating [1]: 0
SCR Eggs (1000 ppm) rating [2]: 0
TSM (300 ppm) rating [3]: 0
CA (300 ppm) rating [4]: 0
M. incognita (150 ppm) score [5]: 9
SAW (300 ppm) rating [6]: 0
SAW Eggs (300 ppm) rating [7]: 0
Rating Against C. elegans (150 ppm) [8]: 8

CC(C)CCCCCOC(=O)CSC(C[N+](=O)[O-])c1ccc2c(c1)OCO2 (stereo not drawn) [Example 21]
WCR (50 ppm) rating [1]: 0
SCR Eggs (1000 ppm) rating [2]: 0
TSM (300 ppm) rating [3]: 0
CA (300 ppm) rating [4]: 7 (7 = 76-85% kill)
M. incognita (150 ppm) score [5]: 8
SAW (300 ppm) rating [6]: 0
SAW Eggs (300 ppm) rating [7]: 0
Rating Against C. elegans (150 ppm) [8]: 0

CCCCC(CC)COC(=O)CSC(C[N+](=O)[O-])c1ccc2c(c1)OCO2 (stereo not drawn) [Example 22]
WCR (50 ppm) rating [1]: 0
SCR Eggs (1000 ppm) rating [2]: 0
TSM (300 ppm) rating [3]: 0
CA (300 ppm) rating [4]: 0
M. incognita (150 ppm) score [5]: 0
SAW (300 ppm) rating [6]: 0
SAW Eggs (300 ppm) rating [7]: 0
Rating Against C. elegans (150 ppm) [8]: 0

O=[N+]([O-])CC(SCc1ccccc1)c1ccc2c(c1)OCO2 (stereo not drawn) [Example 23]
WCR (50 ppm) rating [1]: 4 (4 = 46-55% kill)
SCR Eggs (1000 ppm) rating [2]: 9 (9 = 100% kill)
TSM (300 ppm) rating [3]: 0
CA (300 ppm) rating [4]: 4 (4 = 46-55% kill)
M. incognita (150 ppm) score [5]: 8
SAW (300 ppm) rating [6]: 8 (8 = 86-99% kill)
SAW Eggs (300 ppm) rating [7]: 9 (9 = 100% kill)
Rating Against C. elegans (150 ppm) [8]: 7

CCCSC(C[N+](=O)[O-])c1ccc2c(c1)OCO2 (stereo not drawn) [Example 24]
WCR (50 ppm) rating [1]: 0
SCR Eggs (1000 ppm) rating [2]: 0
TSM (300 ppm) rating [3]: 0
CA (300 ppm) rating [4]: 0
M. incognita (150 ppm) score [5]: 9
SAW (300 ppm) rating [6]: 0
SAW Eggs (300 ppm) rating [7]: 0
Rating Against C. elegans (150 ppm) [8]: 8

COC(=O)CSC(C[N+](=O)[O-])c1ccc(OC)cc1 (stereo not drawn) [Example 47]
WCR (50 ppm) rating [1]: 4 (4 = 46-55% kill)
SCR Eggs (1000 ppm) rating [2]: 0
TSM (300 ppm) rating [3]: 4 (4 = 46-55% kill)
CA (300 ppm) rating [4]: 0
M. incognita (150 ppm) score [5]: 9
SAW (300 ppm) rating [6]: 0
SAW Eggs (300 ppm) rating [7]: 0
Rating Against C. elegans (150 ppm) [8]: 9

CCOC(=O)CSC(C[N+](=O)[O-])c1ccc(OC)cc1 (stereo not drawn) [Example 48]
WCR (50 ppm) rating [1]: 0
SCR Eggs (1000 ppm) rating [2]: 0
TSM (300 ppm) rating [3]: 0
CA (300 ppm) rating [4]: 0
M. incognita (150 ppm) score [5]: 9
SAW (300 ppm) rating [6]: 0
SAW Eggs (300 ppm) rating [7]: 0
Rating Against C. elegans (150 ppm) [8]: 9

CCCCOC(=O)CSC(C[N+](=O)[O-])c1ccc(OC)cc1 (stereo not drawn) [Example 49]
WCR (50 ppm) rating [1]: 0
SCR Eggs (1000 ppm) rating [2]: 0
TSM (300 ppm) rating [3]: 0
CA (300 ppm) rating [4]: 0
M. incognita (150 ppm) score [5]: 9
SAW (300 ppm) rating [6]: 0
SAW Eggs (300 ppm) rating [7]: 0
Rating Against C. elegans (150 ppm) [8]: 9

COc1ccc(C(C[N+](=O)[O-])SCC(=O)OCCCCCC(C)C)cc1 (stereo not drawn) [Example 50]
WCR (50 ppm) rating [1]: 0
SCR Eggs (1000 ppm) rating [2]: 0
TSM (300 ppm) rating [3]: 0
CA (300 ppm) rating [4]: 0
M. incognita (150 ppm) score [5]: 0
SAW (300 ppm) rating [6]: 0
SAW Eggs (300 ppm) rating [7]: 9 (9 = 100% kill)
Rating Against C. elegans (150 ppm) [8]: 7

CCCCC(CC)COC(=O)CSC(C[N+](=O)[O-])c1ccc(OC)cc1 (stereo not drawn) [Example 51]
WCR (50 ppm) rating [1]: 4 (4 = 46-55% kill)
SCR Eggs (1000 ppm) rating [2]: 8 (8 = 86-99% kill)
TSM (300 ppm) rating [3]: 0
CA (300 ppm) rating [4]: 0
M. incognita (150 ppm) score [5]: 0
SAW (300 ppm) rating [6]: 0
SAW Eggs (300 ppm) rating [7]: 9 (9 = 100% kill)
Rating Against C. elegans (150 ppm) [8]: 0

COc1ccc(C(C[N+](=O)[O-])SCc2ccccc2)cc1 (stereo not drawn) [Example 52]
WCR (50 ppm) rating [1]: 4 (4 = 46-55% kill)
SCR Eggs (1000 ppm) rating [2]: 0
TSM (300 ppm) rating [3]: 0
CA (300 ppm) rating [4]: 0
M. incognita (150 ppm) score [5]: 9
SAW (300 ppm) rating [6]: 0
SAW Eggs (300 ppm) rating [7]: 0
Rating Against C. elegans (150 ppm) [8]: 9

CCCSC(C[N+](=O)[O-])c1ccc(OC)cc1 (stereo not drawn) [Example 53]
WCR (50 ppm) rating [1]: 0
SCR Eggs (1000 ppm) rating [2]: 0
TSM (300 ppm) rating [3]: 0
CA (300 ppm) rating [4]: 0
M. incognita (150 ppm) score [5]: 9
SAW (300 ppm) rating [6]: 4 (4 = 46-55% kill)
SAW Eggs (300 ppm) rating [7]: 0
Rating Against C. elegans (150 ppm) [8]: 9

C=CCSC(C[N+](=O)[O-])c1ccc(OC)cc1 (stereo not drawn) [Example 54]
WCR (50 ppm) rating [1]: 5 (5 = 56-65% kill)
SCR Eggs (1000 ppm) rating [2]: 0
TSM (300 ppm) rating [3]: 0
CA (300 ppm) rating [4]: 0
M. incognita (150 ppm) score [5]: 9
SAW (300 ppm) rating [6]: 0
SAW Eggs (300 ppm) rating [7]: 0
Rating Against C. elegans (150 ppm) [8]: 9

COC(=O)CSC(C[N+](=O)[O-])c1cccc(OC)c1 (stereo not drawn) [Example 55]
WCR (50 ppm) rating [1]: 0
SCR Eggs (1000 ppm) rating [2]: 0
TSM (300 ppm) rating [3]: 0
CA (300 ppm) rating [4]: 0
M. incognita (150 ppm) score [5]: 9
SAW (300 ppm) rating [6]: 4 (4 = 46-55% kill)
SAW Eggs (300 ppm) rating [7]: 0
Rating Against C. elegans (150 ppm) [8]: 8
